According to patent US20220213092A1, “BICYCLIC PYRAZOLE BRUTON'S TYROSINE KINASE INHIBITORS” (AbbVie Inc., priority 2020, published 2022):
pEC50, pIC50: −log10 of the molar value.

Key:
MAP2K1 = MAP2K1 (Homo sapiens, UniProt Q02750); experiment: Other kinase MSA: MAP2K1; assay type: biochemical; settings: 25 μM ATP, ERKtide substrate; pre-activation of ERK 30 min, detection after 60 minutes; read-out: IC50, Enzyme MAP2K1
Description: Kinase activity, unless otherwise indicated, was measured in vitro using an electrophoretic mobility shift assay (MSA). The phosphorylation of a peptide substrate by BTK and other kinases was measured. The kinase reactions were assembled in a total volume of 25 μL per well in 384 well plates. The following was added to each well: compound buffer (or control); enzyme buffer; and substrate buffer, as further described below. […]
Enzyme and compound/inhibitor were optionally pre-incubated. […] The kinase activity for the kinases in Table 3 were measured at 3 hours incubation time, except that in the case of MAP2K1 and MAP2K2 assay, pre-activation of ERK was done for 30 min with 6 μM of ATP, and then the detection of activated ERK in the presence of compounds was done after 60 minutes of incubation.
The terminated reactions were analyzed using a 12 channel LABCHIP® 3000 microfluidic detection instrument (available from Caliper Life Sciences, Waltham, Mass.). […] As substrate and product peptides were separated, two peaks of fluorescence were observed. Change in the relative fluorescence intensity of the substrate and product peaks was the parameter measured, reflecting enzyme activity. […] Capillary electrophoregrams (RDA acquisition files) were analyzed using HTS Well Analyzer software (available from Caliper Life Sciences, Waltham, Mass.). […]

[1] = target: T1, Phosphorylation of Y223 of BTK (Homo sapiens, UniProt Q06187); experiment: Whole blood compound screening, phosphorylation of Y223 site of BTK (MSD assay); assay type: cell-based; settings: healthy human whole blood, 2 hours at 37° C., 3 separate donors; read-out: WB BTK-pY223 EC50
T1 construct: host or cells: healthy human whole blood, 3 donors
Procedure, shortened: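 Heparinized human whole blood from 3 donors treated 2 h at 37 °C with compounds (8 points, top 10 μM, 1:4 dilution, 0.2% DMSO), then lysed. BTK pY223 quantified by MSD sandwich immunoassay (anti-BTK capture, anti-pY223 detection); EC50 from concentration response.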

Sequence of MAP2K1 (Q02750 whole entry, species assumed): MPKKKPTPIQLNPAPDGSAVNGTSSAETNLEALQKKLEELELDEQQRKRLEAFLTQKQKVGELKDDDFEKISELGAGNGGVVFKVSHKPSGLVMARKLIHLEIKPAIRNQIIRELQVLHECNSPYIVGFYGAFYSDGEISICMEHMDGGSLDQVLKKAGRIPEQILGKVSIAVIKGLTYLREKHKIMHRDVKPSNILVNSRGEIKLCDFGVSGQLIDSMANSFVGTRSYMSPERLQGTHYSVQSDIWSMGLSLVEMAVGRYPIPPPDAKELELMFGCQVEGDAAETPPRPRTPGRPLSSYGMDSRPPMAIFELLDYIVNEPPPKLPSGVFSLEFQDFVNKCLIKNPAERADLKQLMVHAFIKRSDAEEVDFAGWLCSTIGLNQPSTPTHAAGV
T1 sequence (Q06187 whole entry): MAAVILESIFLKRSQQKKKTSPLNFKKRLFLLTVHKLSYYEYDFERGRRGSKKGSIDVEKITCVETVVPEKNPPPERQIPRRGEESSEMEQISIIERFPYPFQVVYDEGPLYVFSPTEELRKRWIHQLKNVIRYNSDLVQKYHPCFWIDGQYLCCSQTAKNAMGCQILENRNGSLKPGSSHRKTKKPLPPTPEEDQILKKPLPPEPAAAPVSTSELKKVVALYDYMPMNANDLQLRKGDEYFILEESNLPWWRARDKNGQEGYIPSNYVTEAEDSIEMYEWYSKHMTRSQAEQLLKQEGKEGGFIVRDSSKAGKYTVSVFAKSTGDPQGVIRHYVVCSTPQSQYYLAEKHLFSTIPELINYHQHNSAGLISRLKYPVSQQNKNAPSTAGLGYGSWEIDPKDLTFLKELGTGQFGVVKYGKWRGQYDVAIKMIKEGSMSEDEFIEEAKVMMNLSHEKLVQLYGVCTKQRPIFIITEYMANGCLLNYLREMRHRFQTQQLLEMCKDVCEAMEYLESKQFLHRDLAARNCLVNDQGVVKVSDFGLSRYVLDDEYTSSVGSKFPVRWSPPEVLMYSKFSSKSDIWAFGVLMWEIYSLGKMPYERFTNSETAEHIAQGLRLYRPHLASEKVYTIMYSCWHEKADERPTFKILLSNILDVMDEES

pIC50 (MAP2K1) | pEC50 [1] | SMILES
7.38 | – | C=CC(=O)N1CCC([C@@H]2CCNc3c(C(N)=O)c(-c4ccc(Oc5ccccc5)cc4)nn32)CC1 [Compound A, reference compound]
– | 7.62 | C=CC(=O)N1CCN([C@@H]2CCNc3c2nn(-c2ccc(Oc4ccccc4)cc2)c3C(N)=O)CC1 [Example 6, (7R)-2-(4-phenoxyphenyl)-7-[4-(prop-2-enoyl)piperazin-1-yl]-4,5,6,7-tetrahydro-2H-pyrazolo[4,3-b]pyridine-3-carboxamide]
